Among the data in a melting point compilation (Tetko et al.; mined from patent text by program, amines drawn as free bases though some values may be those of a salt) are melting point values, retold here.

Each structure is given as a SMILES string.

What is called melting point is the temperature, or range, at which the solid turns liquid. Turning to `Cc1cc(Oc2ccc(NC(=O)N3CCc4ccccc4CC3)cn2)cc(C)c1Cl`, the melting point was 208 to 209 °C. In the case of `O=c1c2ccc(OCC3CO3)cc2oc2ccc3cccc(O)c3c12` (configuration not stated), the melting point was 191 to 193 °C. With `Cc1nn(-c2ccc(Cl)c3c2CC(C)O3)c(=O)[nH]1` (configuration not stated) the figure was 208 to 209 °C. With `COC1=C(OC)C(=O)C2=C(CCC(CCOc3ccc(OC)cc3)CC2)C1=O` the figure was 76 to 77 °C. With `CCCOc1ccc(S(=O)(=O)N2CCN(CC(=O)OCC)CC2)cc1-c1nc2cc3nc[nH]c3cc2c(=O)[nH]1`, the melting point lay in the range of 188 to 192 °C. With `CC1SC(c2cccnc2)N(CC(=O)OC(C)(C)C)C1=O` (configuration not stated) the figure was 108 °C. With `CC(=O)Oc1c(-c2ccc(=O)[nH]n2)cc(Br)c(C)c1Br` the figure was 220 °C; with `COC(=O)C1=Cc2cc(-c3ccc(N4CCCCC4)cc3)ccc2S(=O)(=O)CC1`, 202 to 204 °C. As for `O=S(=O)(OCC(F)(F)C(F)F)c1ccc2ccccc2c1`, the melting point stood at 89.6 °C. With `CC(C)(C)OC(=O)c1cc(I)ccc1OCc1ccc2ccccc2c1` the figure was 90 °C. With `Clc1ccc2c(c1)CN1C(=Nc3cccnc3)SC[C@@H]1C2` the figure was 125 °C; with `CCCN(CCC)C(=O)Cn1c(=O)[nH]c2cnc(-c3ccc(Cl)cc3)nc21`, 177 to 178 °C; with `C/C(=C\c1ccc(C(=O)N2CCOCC2)cc1)c1ccc2c(c1)C(C)(C)CCC2(C)C`, 143 to 144 °C.

Compound `CS(=O)(=O)Nc1cncc(C(=NCCc2ccccc2Cl)NC#N)c1` yielded a melting point of 205 °C.

`CN1C(=O)CC[C@]2(C)c3ccc(Sc4nc5cc([N+](=O)[O-])ccc5s4)cc3CC[C@@H]12` yielded a melting point of 96 to 100 °C. `N#Cc1c(N2CCc3ccccc3CC2)nc(CCOC2CCCCO2)[nH]c1=O` (configuration not stated): the melting point fell in the range of 185 to 187 °C.

The compound `CCN1CCN(c2cc3c(cc2Cl)c(=O)c(C(=O)O)cn3CC)CC1` gave a melting point of 245 to 248 °C. Turning to `CC(C)Cn1cc(F)c(NCc2ccccc2F)nc1=O`, the melting point fell in the range of 118 to 119 °C. For the compound `Cc1ccc(-c2ccc(C(=O)CBr)cc2)cc1`, the melting point was 120 to 122 °C. The compound `Cc1nsc(-c2ccc(N3CCN(c4cccc(C(F)(F)F)c4)CC3)nn2)n1` displayed a melting point of 173 °C. Take `CN(C)CCNC(=O)Cc1ccc(NC(=O)CCc2nc(-c3ccc4ccccc4c3)no2)cc1`: the melting point lay within 173 to 174 °C. `CCOC(=O)Cc1c(C)n(Cc2ccc(C(C)(C)C)cc2)c2ccc(OCc3csc(-c4ccccc4)n3)cc12` showed a melting point of 119 to 120 °C. As to `CN1C(=O)Cn2c1nc(C(=O)O)c(OCc1ccccc1)c2=O`, the melting point stood at 194 °C. `CC(=O)c1ccc(-c2ccc(C(N)=NO)o2)cc1` came in with a melting point of 197 to 199 °C. The value for `CCCCCCCCCCCCCCCCCCOc1ccc(OCCCOc2ccc(OCc3ccccc3)cc2)c(C(=O)OC)c1` was 79 to 81 °C; that for `CCOC(=O)c1ccc(Cn2c(C)nc3ccc(C(=O)NS(=O)(=O)c4ccccc4)nc32)c(Cl)c1` was 196 to 197 °C; that for `O=C(C[N+](=O)[O-])c1ccc(-c2ccc(-c3ccc4ccccc4n3)cc2)cc1` was 160 to 162 °C. The value for `N#Cc1cnc2sc(C(=O)O)cc2c1Nc1ccc2[nH]ccc2c1` was greater than 250 °C.

Compound `O=S(Cc1ccc(Cl)c(Cl)c1)c1nc2cnccc2[nH]1` (configuration not stated) had a melting point of 198 to 201 °C. On to `Cc1ccc(S(=O)(=O)OCC(O)Cc2cc(Cl)c3ccccc3c2OCc2ccccc2)cc1` (configuration not stated), for which the melting point lay in the range of 85 to 87 °C. `CN(N(S(C)(=O)=O)S(C)(=O)=O)S(C)(=O)=O` yielded a melting point of 123 to 124 °C. The value for `CCCCc1nnc(-c2ccc(OC)cc2)n1-c1ccc(OC)cc1` was 94 °C; that for `CCc1nn(CCO)c(CC)c1Oc1cc(-n2cccn2)cc(-n2cccn2)c1` was 108 to 110 °C. With `CCCC(CCC)C(=O)NC(=O)C(N)c1ccccc1` (configuration not stated) the figure was 190 to 191 °C; with `COc1ncc(Cl)cc1C(O)C(N)=O` (configuration not stated), 110 to 113 °C. The value for `O=C(Oc1ccc(O)cc1)c1ccc(O)cc1` was 242 to 245 °C; that for `CCc1cccc(C)c1CNc1cc(C(=O)O)cc2c1nc(C)n2C` was 312 to 314 °C. Take `O=C(Nc1ccc2c(c1)C(F)(F)C(F)(F)O2)N1CC(c2ccccc2)=C(c2ccc(OC(F)F)cc2)N1`: the melting point was in the range of 155 to 159 °C. In the case of `CCOC(=O)C=c1sc2n(c1=O)Cc1ccccc1N=2`, the melting point is 222 to 224 °C. With `COC(=O)c1cccc(Nc2nc(N)c(C(=O)c3ccccc3OC)s2)c1` the figure was 214 to 215 °C; with `O=Cc1c2c(cn1Cc1ccccc1)OCCO2`, 75 °C; with `CN(C)C(=O)Oc1cccc2c1CN(Nc1ccncc1)C2`, 183 to 185 °C.

Compound `COc1cc(I)c(O)c(C=O)c1` registered a melting point of 103 to 105 °C. `Cc1nc(N2CCN(Cc3ccc(F)cc3)C2=O)sc1C(=O)NCc1cccnn1` returned a melting point of 222 to 225 °C. As to `CCCCCCOc1cc(CC#N)c(OCCCCCC)cc1CC#N`, the melting point was in the range of 96 to 97 °C. The value for `CC(NC(=O)Cc1cc(F)cc(F)c1)C(=O)NC1C(=O)NCc2cc(Cc3ccccc3)ccc21` (configuration not stated) was 159 to 166 °C; that for `CC(=O)OCC(=O)NCCCn1c(-c2ccc(Br)cc2)csc1=Nc1ccccc1` was 156 to 159 °C. The value for `OCc1cn(-c2ccc(Cl)cn2)cn1` was 82 to 87 °C; that for `Cc1cc(Nc2ccnc(Nc3ccc(S(=O)(=O)N(CCN4CCCC4)C4CCN(C)CC4)cc3)n2)ccc1F` was 93 to 103 °C. The value for `COCOc1ccc(-c2ccc(OCOC)c(F)c2)cc1F` was 76.3 to 77.3 °C. Regarding `COc1cc(CNc2nc(C)nc(C)c2Cl)ccc1OCc1ccccc1`, the melting point was 101 to 105 °C. As to `Cc1sc(S(N)(=O)=O)cc1NC(=O)c1cnn2c(C(F)F)cc(-c3ccc(C(F)(F)F)cc3)nc12`, the melting point came out at 313 °C. For the compound `CC(=O)n1ncc2c(OCC3CO3)cc(C)cc21` (configuration not stated), the melting point fell in the range of 105 to 107 °C. `CCCCCCCCCCCCCCc1ccc(C(C)=O)c(O)c1` came in with a melting point of 45 to 46 °C. Consider `Cc1ccc(S(=O)(=O)OCCC2COc3ccccc3C2)cc1` (configuration not stated), for which the melting point lay in the range of 91 to 93 °C. The value for `CC(C)C(NS(=O)(=O)c1ccc(Cl)cc1)c1ccc(CCCC(=O)O)cc1` (single isomer, unassigned; (+)) was 117 to 119 °C; that for `O=S(=O)(c1ccccc1)c1c(-c2ccc(Cl)cc2)[nH]c(C(F)(F)F)c1Cl` was 158 to 161 °C. The value for `CN=C(N)N(C)Cc1ccc(C2=NNC(=O)CC2C)cc1` (configuration not stated) was 190 to 192 °C; that for `Cn1nnn(-c2c(Cl)ccc(C(=O)O)c2Cl)c1=O` was 221 to 225 °C. In turn, `COC(=O)c1ccc(C(O)c2c(C)c3cc(C(F)(F)F)ccc3n2S(=O)(=O)c2cccc(C(C)(C)C)c2)cc1` (configuration not stated) registered a melting point of 65 °C. As for `Nc1ncc(CCCc2cccc3ccccc23)c(N)n1`, the melting point fell in the range of 179 to 181 °C.

Compound `CCOC(=O)CC(=O)CC(=O)c1cccnc1` yielded a melting point of 187 to 189 °C.
